According to PubChem BioAssay AID1963832 (Molecular Pharmacology Branch, DTP, NCI, 2024):

Test system: 885724-159-R-J1-PDC complex spheroid viability
Assay: Anticancer human tumor 885724-159-R-J1-PDC patient-derived pancreatic adenocarcinoma cell line growth inhibition [POLQ]
Conditions: for IC50: curve of first compound; for viability, T/C: stronger effect = lower value
In short: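 Complex spheroid viability model combining PDC tumour cells with endothelial (HUVEC) and MSC stromal cells. Novobiocin, ART-558 or RP6685 were tested singly and in combination with standard and investigational anticancer drugs. Each was titrated in half-log steps from near clinical Cmax, or from 10 microM where Cmax was unknown.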

[1] = second compound 0.0316 µM, first compound 0.00316 µM
[2] = second compound 0.0316 µM, first compound 0.01 µM
[3] = second compound 0.0316 µM, first compound 0.0316 µM
[4] = second compound 0.0316 µM, first compound 0.1 µM
[5] = second compound 0.0316 µM, first compound 0.316 µM
[6] = second compound 0.0316 µM, first compound 1 µM
[7] = second compound 0.1 µM, first compound 0.00316 µM
[8] = second compound 0.1 µM, first compound 0.01 µM
[9] = second compound 0.1 µM, first compound 0.0316 µM
[10] = second compound 0.1 µM, first compound 0.1 µM
[11] = second compound 0.1 µM, first compound 0.316 µM
[12] = second compound 0.1 µM, first compound 1 µM
[13] = second compound 0.316 µM, first compound 0.00316 µM
[14] = second compound 0.316 µM, first compound 0.01 µM
[15] = second compound 0.316 µM, first compound 0.0316 µM
[16] = second compound 0.316 µM, first compound 0.1 µM
[17] = second compound 0.316 µM, first compound 0.316 µM
[18] = second compound 0.316 µM, first compound 1 µM
[19] = second compound 1 µM, first compound 0.00316 µM
[20] = second compound 1 µM, first compound 0.01 µM
[21] = second compound 1 µM, first compound 0.0316 µM
[22] = second compound 1 µM, first compound 0.1 µM
[23] = second compound 1 µM, first compound 0.316 µM
[24] = second compound 1 µM, first compound 1 µM
[25] = second compound 3.16 µM, first compound 0.00316 µM
[26] = second compound 3.16 µM, first compound 0.01 µM
[27] = second compound 3.16 µM, first compound 0.0316 µM
[28] = second compound 3.16 µM, first compound 0.1 µM
[29] = second compound 3.16 µM, first compound 0.316 µM
[30] = second compound 3.16 µM, first compound 1 µM
[31] = second compound 10 µM, first compound 0.00316 µM
[32] = second compound 10 µM, first compound 0.01 µM
[33] = second compound 10 µM, first compound 0.0316 µM
[34] = second compound 10 µM, first compound 0.1 µM
[35] = second compound 10 µM, first compound 0.316 µM
[36] = second compound 10 µM, first compound 1 µM
[37] = second compound 0.0316 µM, first compound 3.16 µM
[38] = second compound 0.0316 µM, first compound 10 µM
[39] = second compound 0.1 µM, first compound 3.16 µM
[40] = second compound 0.1 µM, first compound 10 µM
[41] = second compound 0.316 µM, first compound 3.16 µM
[42] = second compound 0.316 µM, first compound 10 µM
[43] = second compound 1 µM, first compound 3.16 µM
[44] = second compound 1 µM, first compound 10 µM
[45] = second compound 3.16 µM, first compound 3.16 µM
[46] = second compound 3.16 µM, first compound 10 µM
[47] = second compound 10 µM, first compound 3.16 µM
[48] = second compound 10 µM, first compound 10 µM
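Further: spheroids exposed to compounds for 7 days.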

Structure (SMILES): C=CCn1c(=O)c2cnc(Nc3ccc(N4CCN(C)CC4)cc3)nc2n1-c1cccc(C(C)(C)O)n1 + Cc1cccc(N(C)C(=O)C2C(O)CCN2c2nc(C)cc(C(F)(F)F)c2C#N)c1
- IC50 (second compound 0.0316 µM): > 1000 nM
- IC50 (second compound 0.1 µM): 771 nM
- IC50 (second compound 0.316 µM): 435 nM
- IC50 (second compound 1 µM): 856 nM
- IC50 (second compound 3.16 µM): > 1000 nM
- IC50 (second compound 10 µM): 817 nM
- viability, T/C [1]: 101%
- viability, T/C [2]: 95.6%
- viability, T/C [3]: 84.9%
- viability, T/C [4]: 72.6%
- viability, T/C [5]: 56.5%
- viability, T/C [6]: 51.1%
- viability, T/C [7]: 105%
- viability, T/C [8]: 98%
- viability, T/C [9]: 93%
- viability, T/C [10]: 77.2%
- viability, T/C [11]: 59.9%
- viability, T/C [12]: 47.2%
- viability, T/C [13]: 98.6%
- viability, T/C [14]: 97.9%
- viability, T/C [15]: 93.7%
- viability, T/C [16]: 73%
- viability, T/C [17]: 53.3%
- viability, T/C [18]: 43.6%
- viability, T/C [19]: 101%
- viability, T/C [20]: 93.8%
- viability, T/C [21]: 88.9%
- viability, T/C [22]: 70.1%
- viability, T/C [23]: 55%
- viability, T/C [24]: 49.4%
- viability, T/C [25]: 92.2%
- viability, T/C [26]: 96.5%
- viability, T/C [27]: 94.2%
- viability, T/C [28]: 77.7%
- viability, T/C [29]: 61.6%
- viability, T/C [30]: 50%
- viability, T/C [31]: 103%
- viability, T/C [32]: 84.8%
- viability, T/C [33]: 98.2%
- viability, T/C [34]: 82.7%
- viability, T/C [35]: 61.6%
- viability, T/C [36]: 47.5%

Structure (SMILES): CCCS(=O)(=O)Nc1ccc(F)c(C(=O)c2c[nH]c3ncc(-c4ccc(Cl)cc4)cc23)c1F + Cc1cccc(N(C)C(=O)C2C(O)CCN2c2nc(C)cc(C(F)(F)F)c2C#N)c1
- IC50 (second compound 0.0316 µM): > 10000 nM
- IC50 (second compound 0.1 µM): > 10000 nM
- IC50 (second compound 0.316 µM): > 10000 nM
- IC50 (second compound 1 µM): > 10000 nM
- IC50 (second compound 3.16 µM): > 10000 nM
- IC50 (second compound 10 µM): > 10000 nM
- viability, T/C [3]: 100%
- viability, T/C [4]: 118%
- viability, T/C [5]: 116%
- viability, T/C [6]: 142%
- viability, T/C [37]: 140%
- viability, T/C [38]: 94.6%
- viability, T/C [9]: 99.8%
- viability, T/C [10]: 111%
- viability, T/C [11]: 122%
- viability, T/C [12]: 142%
- viability, T/C [39]: 158%
- viability, T/C [40]: 99.4%
- viability, T/C [15]: 103%
- viability, T/C [16]: 112%
- viability, T/C [17]: 135%
- viability, T/C [18]: 158%
- viability, T/C [41]: 158%
- viability, T/C [42]: 100%
- viability, T/C [21]: 117%
- viability, T/C [22]: 102%
- viability, T/C [23]: 123%
- viability, T/C [24]: 144%
- viability, T/C [43]: 160%
- viability, T/C [44]: 97.5%
- viability, T/C [27]: 108%
- viability, T/C [28]: 109%
- viability, T/C [29]: 121%
- viability, T/C [30]: 155%
- viability, T/C [45]: 151%
- viability, T/C [46]: 86.6%
- viability, T/C [33]: 101%
- viability, T/C [34]: 105%
- viability, T/C [35]: 143%
- viability, T/C [36]: 153%
- viability, T/C [47]: 137%
- viability, T/C [48]: 82.9%

Structure (SMILES): CNCc1ccc(-c2[nH]c3cc(F)cc4c3c2CCNC4=O)cc1 + Cc1cccc(N(C)C(=O)C2C(O)CCN2c2nc(C)cc(C(F)(F)F)c2C#N)c1
- IC50 (second compound 0.0316 µM): > 10000 nM
- IC50 (second compound 0.1 µM): > 10000 nM
- IC50 (second compound 0.316 µM): > 10000 nM
- IC50 (second compound 1 µM): > 10000 nM
- IC50 (second compound 3.16 µM): > 10000 nM
- IC50 (second compound 10 µM): > 10000 nM
- viability, T/C [3]: 92.2%
- viability, T/C [4]: 102%
- viability, T/C [5]: 98.2%
- viability, T/C [6]: 89.2%
- viability, T/C [37]: 90.3%
- viability, T/C [38]: 83.9%
- viability, T/C [9]: 104%
- viability, T/C [10]: 104%
- viability, T/C [11]: 91.1%
- viability, T/C [12]: 92.7%
- viability, T/C [39]: 93.3%
- viability, T/C [40]: 83.2%
- viability, T/C [15]: 104%
- viability, T/C [16]: 94.1%
- viability, T/C [17]: 102%
- viability, T/C [18]: 87.9%
- viability, T/C [41]: 92%
- viability, T/C [42]: 88.5%
- viability, T/C [21]: 92.2%
- viability, T/C [22]: 89.5%
- viability, T/C [23]: 88.7%
- viability, T/C [24]: 113%
- viability, T/C [43]: 91%
- viability, T/C [44]: 86.3%
- viability, T/C [27]: 102%
- viability, T/C [28]: 90.8%
- viability, T/C [29]: 97.5%
- viability, T/C [30]: 96.3%
- viability, T/C [45]: 92.5%
- viability, T/C [46]: 85.2%
- viability, T/C [33]: 97%
- viability, T/C [34]: 103%
- viability, T/C [35]: 85.2%
- viability, T/C [36]: 88%
- viability, T/C [47]: 86.1%
- viability, T/C [48]: 88.5%

Structure (SMILES): COc1cccc(OCCCN)c1-c1cc(Nc2cnc(C#N)cn2)n[nH]1 + Cc1cccc(N(C)C(=O)C2C(O)CCN2c2nc(C)cc(C(F)(F)F)c2C#N)c1
- IC50 (second compound 0.0316 µM): 10.6 nM
- IC50 (second compound 0.1 µM): 20.7 nM
- IC50 (second compound 0.316 µM): 10.6 nM
- IC50 (second compound 1 µM): 9.08 nM
- IC50 (second compound 3.16 µM): 8.91 nM
- IC50 (second compound 10 µM): 9.02 nM
- viability, T/C [1]: 71.8%
- viability, T/C [2]: 51.3%
- viability, T/C [3]: 42.9%
- viability, T/C [4]: 44.4%
- viability, T/C [5]: 46.4%
- viability, T/C [6]: 45.6%
- viability, T/C [7]: 78.5%
- viability, T/C [8]: 57.1%
- viability, T/C [9]: 42.5%
- viability, T/C [10]: 46.8%
- viability, T/C [11]: 45.5%
- viability, T/C [12]: 48.6%
- viability, T/C [13]: 71.9%
- viability, T/C [14]: 52.2%
- viability, T/C [15]: 40.9%
- viability, T/C [16]: 42.7%
- viability, T/C [17]: 41.8%
- viability, T/C [18]: 48.7%
- viability, T/C [19]: 73%
- viability, T/C [20]: 48.5%
- viability, T/C [21]: 41.9%
- viability, T/C [22]: 44%
- viability, T/C [23]: 41.6%
- viability, T/C [24]: 46.8%
- viability, T/C [25]: 71.8%
- viability, T/C [26]: 46.6%
- viability, T/C [27]: 47.5%
- viability, T/C [28]: 48%
- viability, T/C [29]: 47.8%
- viability, T/C [30]: 47.6%
- viability, T/C [31]: 76.6%
- viability, T/C [32]: 47.4%
- viability, T/C [33]: 45.4%
- viability, T/C [34]: 44.3%
- viability, T/C [35]: 48.2%
- viability, T/C [36]: 48.2%
